{
  "source": "ChEMBL document CHEMBL1131866",
  "about": "“Stereoisomeric acylamidomorpholinium carnitine analogues: selective inhibitors of carnitine palmitoyltransferase I and II” (Bioorg Med Chem Lett, 1999)",
  "biological_target": "T1, Carnitine O-palmitoyltransferase 2, mitochondrial (Rattus norvegicus) (UniProt P18886)",
  "T1 sequence (whole entry)": "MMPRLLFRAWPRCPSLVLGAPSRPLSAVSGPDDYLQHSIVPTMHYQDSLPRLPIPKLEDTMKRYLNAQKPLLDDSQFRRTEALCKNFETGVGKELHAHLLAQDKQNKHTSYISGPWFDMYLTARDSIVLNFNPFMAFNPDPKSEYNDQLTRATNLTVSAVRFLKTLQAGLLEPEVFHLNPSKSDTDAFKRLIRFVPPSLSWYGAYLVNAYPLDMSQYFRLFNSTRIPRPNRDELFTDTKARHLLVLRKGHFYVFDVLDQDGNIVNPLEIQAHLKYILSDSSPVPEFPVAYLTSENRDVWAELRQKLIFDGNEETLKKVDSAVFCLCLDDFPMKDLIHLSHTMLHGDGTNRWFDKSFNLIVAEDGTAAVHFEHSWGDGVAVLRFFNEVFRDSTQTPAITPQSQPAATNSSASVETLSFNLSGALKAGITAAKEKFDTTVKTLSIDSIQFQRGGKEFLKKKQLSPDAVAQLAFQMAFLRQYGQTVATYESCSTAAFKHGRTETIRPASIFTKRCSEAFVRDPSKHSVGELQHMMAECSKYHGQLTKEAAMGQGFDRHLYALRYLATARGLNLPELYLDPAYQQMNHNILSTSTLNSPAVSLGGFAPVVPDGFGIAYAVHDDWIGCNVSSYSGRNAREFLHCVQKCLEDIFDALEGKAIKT",
  "assay": "Inhibitory activity against rat-liver mitochondrial Carnitine palmitoyl transferase II",
  "conditions": "concentration not given here",
  "data": [
    {"smiles": "CCCCCCCCCCCCCC(=O)NC[C@H]1C[N+](C)(C)C[C@@H](CC(=O)[O-])O1", "values": [
      {"measurement": "inhibition", "result": 41, "unit": "%"}
    ]}
  ]
}
